Measured values taken from US9156860B2, “Boron-containing small molecules” (Anacor Pharmaceuticals, Inc., priority 2011, dated 2015).

Test system: cat flea (Ctenocephalides felis)
Test: Example 4: efficacy against cat flea infestations on dogs
Assay type: in vivo
Settings: 25 mg/kg oral, solid dosage form, Day 32
Procedure: The therapeutic (knockdown) and residual efficacy of 7, administered orally at a point dosages of 5 and 25 mg/kg bodyweight, was evaluated against adult American dog tick (D. variabilis) and cat flea (C. felis) infestations on dogs. Sixteen (16) male and female beagle dogs were allocated to one of four treatment groups: Untreated control group (n=4 dogs); 7, 5 mg/kg liquid oral dosage form (n=4 dogs); 7, 25 mg/kg liquid oral dosage form (n=4 dogs); and 7, 25 mg/kg solid oral dosage form. Liquid dosage forms were prepared by dissolving 7 in a solution of 55% polyethylene glycol-300, 35% propylene glycol and 10% water at 25 mg/ml. Solid oral dosage form was prepared by thoroughly mixing 7 with microcrystalline cellulose and croscarmellose sodium (50:47:3, w/w) and placing into size 00 gelatin capsules. On Day 0, all dogs were orally administered 7 at the prescribed point dosages. […]
The total number of live ticks or fleas (normal plus moribund classification) present on each dog was determined for each interval, and this number was transformed using the natural logarithm transformation plus one (Ln count+1); addition of one to each count served to adjust for counts that were zero. […] GM percent efficacy of treatments was calculated using the following formula: […]

SMILES: CC1(C)OB(O)c2ccc(C3=NOC(c4cc(Cl)c(Cl)c(Cl)c4)(C(F)(F)F)C3)cc21 (racemic) [Compound 7, 3,3-Dimethyl-5-(5-(3,4,5-trichlorophenyl)-5-(trifluoromethyl)-4,5-dihydroisoxazol-3-yl)benzo[c][1,2]oxaborol-1(3H)-ol]
- Geometric mean group live flea count: 3.9
